Laboratory results as given in US12616201B2, “Herbicidal compositions comprising isoxaflutole” (BASF SE, priority 2024, dated 2026).

Assays:
Amaranthus hybridus = assay: Post-emergence application in field trials, AMACH; type: in vivo; details: Table 1.1; AMACH growth stage 35; 21 DAT; 25 g ai/ha
Experimental: (§1) In the examples below, using the method of S. R. Colby (1967) “Calculating synergistic and antagonistic responses of herbicide combinations”, Weeds 15, p. 22ff., the value E, which is expected if the activity of the individual active compounds is only additive, was calculated:
(§2) [formula] • where • X=percent activity using active herbicide A at an application rate a; • Y=percent activity using active herbicide B (i.e. isoxaflutole) at an application rate b; • E=expected activity (in %) by A+B at application rates a+b.
(§3) If the value found experimentally is higher than the value E calculated according to Colby, a synergistic effect is present.
(§4) On field test sites, natural weed infestation or seeded weeds were treated post-emergence of the weeds.
(§5) In the field trials, the weeds were treated as indicated below.
(§6) In the following experiments, the herbicidal activity for the individual herbicidal compositions (solo and mixture applications) was assessed at the indicated days after treatment (DAT). The assessments for the damage on undesired weeds caused by the composition was carried out using a scale from 0 to 100%, compared to the untreated control plants. Here, 0 means no damage and 100 means complete destruction of the plants. […]

Glycine max = assay: Post-emergence application in field trials, GLXMA; type: in vivo; details: GLXMA growth stage 13
Experimental: as §1, §2, §3, §4, §5
(§7) In the following experiments, the herbicidal activity for the individual herbicidal compositions (solo and mixture applications) was assessed at the indicated days after treatment (DAT). The assessments for the damage on undesired weeds caused by the composition was carried out using a scale from 0 to 100%, compared to the untreated control plants. Here, 0 means no damage and 100 means complete destruction of the plants.
(§8) Herbicide A-1 and isoxaflutole (240 g/l SC) were, together with addition of 0.25 v/v % MSO (methylated sed oil) as adjuvant, formulated in water as distribution medium (water volume 200 l/ha) and sprayed with commercial flat fan nozzles.

Datura stramonium = assay: Post-emergence application in field trials, DATST; type: in vivo
Experimental: as §1, §2, §3, §4, §5, §7, §8
(§9) Herbicide A-1, isoxaflutole (240 g/l SC) and saflufenacil (342 g/l) were, together with addition of 0.25 v/v % MSO (methylated sed oil) as adjuvant, formulated in water as distribution medium (water volume 200 l/ha) and sprayed with commercial flat fan nozzles.

Spermacoce latifolia = assay: Post-emergence application in field trials, BOILF; type: in vivo; details: Table 1.1, BOILF growth stage 40, 21 DAT
Experimental: as §1, §2, §3, §4, §5, §7
Herbicide A-1 and isoxaflutole (75% WG) were, together with addition of 0.5 v/v % MSO (methylated sed oil) as adjuvant, formulated in water as distribution medium (water volume 200 l/ha) and sprayed with commercial flat fan nozzles.

Amaranthus retroflexus = assay: Post-emergence application in field trials, AMARE; type: in vivo; details: Table 3.4; AMARE growth stage 31-49; 42 DAT; 18 g ai/ha
Experimental: as §1, §2, §3, §4, §5, §7
(§10) Herbicide A-1 and isoxaflutole (240 g/l SC, Balance Flexx®) were, together with addition of 0.25 v/v % MSO (methylated sed oil) as adjuvant, formulated in water as distribution medium (water volume 200 l/ha) and sprayed with commercial flat fan nozzles.
(§11) Herbicide A-1, isoxaflutole (240 g/l SC), saflufenacil (342 g/l) and pyroxasulfone were, together with addition of 0.25 v/v % MSO (methylated sed oil) as adjuvant, formulated in water as distribution medium (water volume 200 l/ha) and sprayed with commercial flat fan nozzles.

Abuthilon theophrasti = assay: Post-emergence application in field trials, ABUTH; type: in vivo; details: ABUTH growth stage 14-16, 18 g ai/ha
Experimental: as §1, §2, §3, §4, §5, §7, §10

Setaria verticillata = assay: Post-emergence application in field trials, SETVE; type: in vivo; details: SETVE growth stage 21-23, 12.5 g ai/ha
Experimental: as §1, §2, §3, §4, §5, §7, §8, §10

Zea mays = assay: Post-emergence application in field trials, ZEAMX; type: in vivo
Experimental: as §1, §2, §3, §4, §5, §7, §8, §10, §9, §11

Ipomoea triloba = assay: Post-emergence application in field trials, IPOTR; type: in vivo; details: Table 1.1; IPOTR growth stage 35; 21 DAT; 25 g ai/ha
Experimental: as §1, §2, §3, §4, §5, §6

Euphorbia heterophylla = assay: Post-emergence application in field trials, EPHHL; type: in vivo; details: Table 1.1; EPHHL growth stage 35; 21 DAT; 50 g ai/ha
Experimental: as §1, §2, §3, §4, §5, §6

Hordeum vulgare = assay: Post-emergence application in field trials, HORVX; type: in vivo; details: HORVX growth stage 23-29
Experimental: as §1, §2, §3, §4, §5, §7, §10

Echinochloa crus-galli = assay: Post-emergence application in field trials, ECHCG; type: in vivo
Experimental: as §1, §2, §3, §4, §5, §7, §8, §10, §9, §11

HORVW = assay: Post-emergence application in field trials, HORVW; type: in vivo, Hordeum vulgare; details: HORVW height 20-25 cm, 12.5 g ai/ha
Experimental: as §1, §2, §3, §4, §5, §7, §11

Lolium multiflorum = assay: Post-emergence application in field trials, LOLMU; type: in vivo; details: LOLMU height 20-25 cm, 12.5 g ai/ha
Experimental: as §1, §2, §3, §4, §5, §7, §11

[1] = Table 4.2, DATST growth stage 14-16, height 5-10 cm, 42 DAT, 12.5 g ai/ha
[2] = Table 4.1, ZEAMX growth stage 15-16, height 25-30 cm, 7 DAT, 12.5 g ai/ha
[3] = Table 4.1, ECHCG growth stage 23-30, height 15-20 cm, 7 DAT, 12.5 g ai/ha

CCOC(=O)COc1ccccc1Oc1nc(-n2c(=O)cc(C(F)(F)F)n(C)c2=O)c(F)cc1Cl [A-1, ethyl 2-[2-[[3-chloro-5-fluoro-6-[3-methyl-2,6-dioxo-4-(trifluoromethyl)pyrimidin-1-yl]-2-pyridyl]oxy]phenoxy]acetate]
% herbicidal activity (Amaranthus hybridus): 84% | % herbicidal activity (Glycine max; Table 2.1, 7 DAT, 18 g ai/ha): 80% | % herbicidal activity (Glycine max; Table 2.2, 21 DAT, 12.5 g ai/ha): 80% | % herbicidal activity (Glycine max; Table 2.2, 21 DAT, 18 g ai/ha): 80% | % herbicidal activity (Glycine max; Table 2.3, 21 DAT, 12.5 g ai/ha): 75% | % herbicidal activity (Datura stramonium; Table 2.1, DATST growth stage 14-16, 7 DAT, 18 g ai/ha): 75% | % herbicidal activity (Datura stramonium; Table 2.3, DATST growth stage 14-16, 21 DAT, 18 g ai/ha): 70% | % herbicidal activity (Datura stramonium; [1]): 55% | % herbicidal activity (Datura stramonium; Table 4.2, DATST growth stage 14-16, height 5-10 cm, 42 DAT, 18 g ai/ha): 70% | % herbicidal activity (Spermacoce latifolia; 25 g ai/ha): 81% | % herbicidal activity (Spermacoce latifolia; 50 g ai/ha): 95% | % herbicidal activity (Amaranthus retroflexus): 70% | % herbicidal activity (Abuthilon theophrasti; Table 3.1, 7 DAT): 90% | % herbicidal activity (Abuthilon theophrasti; Table 3.2, 21 DAT): 92% | % herbicidal activity (Abuthilon theophrasti; Table 3.4, 42 DAT): 90% | % herbicidal activity (Setaria verticillata; Table 2.1, 7 DAT): 60% | % herbicidal activity (Setaria verticillata; Table 3.4, 42 DAT): 30% | % herbicidal activity (Zea mays; Table 2.1, ZEAMX growth stage 15-16, 7 DAT, 18 g ai/ha): 85% | % herbicidal activity (Zea mays; Table 3.2, ZEAMX growth stage 15-16, 21 DAT, 18 g ai/ha): 75% | % herbicidal activity (Zea mays; Table 3.3, ZEAMX growth stage 15-16, 28 DAT, 18 g ai/ha): 60% | % herbicidal activity (Zea mays; [2]): 40% | % herbicidal activity (Zea mays; Table 4.1, ZEAMX growth stage 15-16, height 25-30 cm, 7 DAT, 18 g ai/ha): 50% | % herbicidal activity (Zea mays; Table 5.10, 7 DAT, height 25-30 cm, A-1 12.5 g ai/ha): 85% | % herbicidal activity (Zea mays; Table 5.10, 7 DAT, height 25-30 cm, A-1 18 g ai/ha): 85% | % herbicidal activity (Zea mays; Table 5.11, 7 DAT, height 25-30 cm, A-1 12.5 g ai/ha): 85% | % herbicidal activity (Zea mays; Table 5.11, 7 DAT, height 25-30 cm, A-1 18 g ai/ha): 85% | % herbicidal activity (Zea mays; Table 5.12, 7 DAT, height 25-30 cm, A-1 12.5 g ai/ha): 85% | % herbicidal activity (Zea mays; Table 5.12, 7 DAT, height 25-30 cm, A-1 18 g ai/ha): 85% | % herbicidal activity (Ipomoea triloba): 61% | % herbicidal activity (Euphorbia heterophylla): 86% | % herbicidal activity (Hordeum vulgare; Table 3.1, 7 DAT, 12.5 g ai/ha): 70% | % herbicidal activity (Hordeum vulgare; Table 3.1, 7 DAT, 18 g ai/ha): 80% | % herbicidal activity (Hordeum vulgare; Table 3.2, 21 DAT, 12.5 g ai/ha): 90% | % herbicidal activity (Echinochloa crus-galli; Table 2.1, ECHCG growth stage 23-30, 7 DAT, 12.5 g ai/ha): 30% | % herbicidal activity (Echinochloa crus-galli; Table 2.1, ECHCG growth stage 23-30, 7 DAT, 18 g ai/ha): 30% | % herbicidal activity (Echinochloa crus-galli; Table 3.1, ECHCG growth stage 23-30, 7 DAT, 18 g ai/ha): 30% | % herbicidal activity (Echinochloa crus-galli; Table 3.2, ECHCG growth stage 23-30, 21 DAT, 12.5 g ai/ha): 20% | % herbicidal activity (Echinochloa crus-galli; [3]): 30% | % herbicidal activity (Echinochloa crus-galli; Table 4.1, ECHCG growth stage 23-30, height 15-20 cm, 7 DAT, 18 g ai/ha): 30% | % herbicidal activity (Echinochloa crus-galli; Table 5.11, 7 DAT, height 15-20 cm, A-1 12.5 g ai/ha): 30% | % herbicidal activity (Echinochloa crus-galli; Table 5.11, 7 DAT, height 15-20 cm, A-1 18 g ai/ha): 30%

CC(C)N(C)S(=O)(=O)NC(=O)c1cc(-n2c(=O)cc(C(F)(F)F)n(C)c2=O)c(F)cc1Cl [C-1, saflufenacil]
% herbicidal activity (Datura stramonium; [1]): 40% | % herbicidal activity (Zea mays; [2]): 0% | % herbicidal activity (Zea mays; Table 5.11, 7 DAT, height 25-30 cm, C-1 12.5 g ai/ha): 8% | % herbicidal activity (Zea mays; Table 5.7, ZEAMX height 25-30 cm, 7 DAT, 12.5 g ai/ha): 8% | % herbicidal activity (Zea mays; Table 5.8, ZEAMX height 25-30 cm, 21 DAT, 12.5 g ai/ha): 2% | % herbicidal activity (Zea mays; Table 5.9, ZEAMX height 25-30 cm, 28 DAT, 12.5 g ai/ha): 0% | % herbicidal activity (HORVW; Table 5.2, 21 DAT): 0% | % herbicidal activity (HORVW; Table 5.3, 28 DAT): 0% | % herbicidal activity (HORVW; Table 5.8, 21 DAT): 0% | % herbicidal activity (Lolium multiflorum; Table 5.1, 7 DAT): 20% | % herbicidal activity (Lolium multiflorum; Table 5.8, 21 DAT): 20% | % herbicidal activity (Echinochloa crus-galli; [3]): 20% | % herbicidal activity (Echinochloa crus-galli; Table 5.11, 7 DAT, height 15-20 cm, C-1 12.5 g ai/ha): 20%
